According to patent US4389412A, “Substituted cyclopropanecarboxylic acid esters and pesticidal compositions containing the same as active ingredient” (priority 1979, dated 1983):
≈ marks a conversion by molar mass, not a printed value. Like-named read-outs stand apart in the source and are kept apart here.

Tests used:
[1] = test system: rice stem borers (Chilo suppressalis Walker); experiment: Mortality test with rice stem borers by topical application method; type: in vivo; settings: 24 h; for mortality at 0.001 mg: read-out: Pesticidal effect, rice stem borer
Description: Mortality test with rice stem borers (Chilo suppressalis Walker) by topical application method
Using a microsyringe, 0.5 μl of the above solution was applied to the thoracic abdominal region of each final-instar larva of rice stem borer (Chilo suppressalis Walker). […] The test larvae were used in groups of 20 individuals each.

[2] = Fish toxicity test with carp; type: in vivo, Cyprinus carpio L; settings: carp, water, 48 hrs., 21±1° C.; read-out: TLm, Carp (48 hrs.)
Description: Fish toxicity test with carp (Cyprinus carpio L)
An acetone solution of one of the test compounds as mentioned in Table 10 and Tween-20 (the same surfactant as mentioned hereinbefore) was prepared. To 50 liters of water (30 cm deep) in a glass tank was added the above acetone solution. The mixture was stirred thoroughly to prepare an aqueous solution containing the test compound in a predetermined concentration. This was used as a test water. Five carps (Cyprinus carpio L) with a body weight of about 6 g and a body length of about 6 cm were released into each test water which was maintained at 21±1° C. After 48 hours, the test fish was examined for death. The TLm (median tolerance limit, ppm) was determined. The test water was moderately aerated.

[3] = Toxicity test with water-fleas; type: in vivo, Daphnia pulex; settings: water, 25±1° C., read-out: TLm, Water-flea (6 hrs.)
Description: Toxicity test with water-fleas (Daphnia pulex)
An acetone solution of one of the test compounds as mentioned in Table 10 and Tween-20 (the same surfactant as mentioned hereinbefore) was prepared. To 100 ml of water in a high-walled dish (9 cm in diameter, 7 cm deep) was added the above acetone solution. The mixture was stirred thoroughly to prepare an aqueous solution containing the test compound in a predetermined concentration. This was used as a test water. Twenty water-fleas (Daphnia pulex) were released into each test water which was maintained at 25±1° C. After 6 hours, the water-fleas were examined for deaths. The TLm (median tolerance limit, ppm) was determined.

carp and water flea = experiment: Fish toxicity ranking according to Japanese regulations; set-up: species or system Cyprinus carpio L; Daphnia pulex; settings: from TLm for carp and water flea
Description: The above ranking with symbols A, B and C were determined according to Japanese regulations relative to application of agricultural chemicals, and these symbols are defined as follows: […]
A: TLm (48 hrs.) value >10 ppm for carp and TLm (3 hrs.) value >0.5 ppm for water flea, wherein toxicity to fishes is not observed by usual application.
B: TLm (48 hrs.) value 10-0.5 ppm for carp; or TLm (48 hrs.) value >10 ppm for carp and TLm (3 hrs.) value <0.5 ppm for water flea, wherein appreciable toxicity to fishes is not observed by usual application but may be observed when applied to wide area at one time.
C: TLm (48 hrs.) value <0.5 ppm for carp, wherein toxicity to fishes is so strongly observed by usual application that both the application method and application area are strictly restricted.

[4] = test system: brown planthoppers (Nilaparvata lugens Stal); experiment: Utility Example-1: LC50 on adult brown planthoppers on dipped rice plants; type: in vivo; settings: Nilaparvata lugens, 24 h, 25° C., read-out: Pesticidal activity LC50
Description: A 1% emulsifiable concentrate of each test compound as prepared by the procedure described in Formulation Example 2 was diluted with water to prepare a test solution of predetermined concentration.
Rice plants, 4 weeks after sowing (cultivated in a pot 6 cm in diameter, 7 seedlings) were dipped in the above solution and after allowing them to dry in the air, the pot was covered with a wire-mesh cage. Then, 30 adult brown planthoppers (Nilaparvata lugens Stal) were released into the cage and the pot was kept in a constant-temperature chamber at 25° C.

[5] = Fish toxicity safety factor (TLm divided by maximum concentration in cover water); set-up: species or system carp; settings: in vivo, TLm / maximum concentration in cover water at LC50 application (100 l per 10 ares, 5 cm depth)
Description: To further confirm the low toxicity to fish and high pesticidal activity of Compounds (1) and (2) according to this invention as evidenced by the fish toxicity tests with carps and the above tests, fish toxicity safety factors were calculated from the fish toxicity and pesticidal test data. These fish toxicity safety factors are indicators of safety to fish inhabiting a paddy field to which Compounds (1) and (2) may be actually applied for pest control purposes.
It is first assumed that such a pesticidal solution would normally be applied at the rate of 100 l per 10 ares of paddy field. It is also assumed that a solution (100 l) corresponding to the LC50 of the compounds would be applied to 10 ares of a paddy field carrying a cover water with a depth of 5 cm above ground surface and that all the solution would then find its way into the cover water. The expected maximum concentration of the compound in the cover water is then calculated. The fish toxicity safety factor of a pesticidal compound is defined as the value obtained by dividing the TLm (ppm) of the particular compound by the maximum concentration of the compound in cover water. The meaning of the value of the fish toxicity safety factor being one (1) is that the maximum concentration of the particular compound in cover water corresponds to the TLm of said compound. It is understood that when the pesticidal compound having a fish toxicity safety factor value of less than one (1) is applied to a paddy field, it has a risk of destroying the fish inhabiting there, and that the higher the safety factor value, the higher is the safety of the compound to fish.
This fish toxicity safety factor will now be explained in further detailed by taking the trans-isomer of Compound (2) of this invention as an example.
On the other hand, the toxicity to fish of this compound is TLm >10 ppm. Therefore, by dividing the TLm (i.e. >10 ppm) by the above cover water maximum concentration (i.e. 0.36 ppm), we obtain a fish toxicity safety factor of >28. Thus, the concentration of the trans-isomerof Compound (2) which kills 50% of pests corresponds to less than 1/28 of the concentration of the same isomer which kills 50% of fish. In other words, this means that the trans-isomer of Compound (2) is extremely safe to fish.

[6] = test system: green rice leafhoppers (Nephotettix cincticeps Uhler); experiment: Mortality test with green rice leafhoppers by topical application method; settings: Nephotettix cincticeps, in Oryza sativa, 24 h; for mortality at 10 ng: read-out: Pesticidal effect, green rice leafhopper
Description: Mortality test with green rice leafhoppers (Nephotettix cincticeps Uhler) by topical application method
Then, the insects were kept at 25° C. with access to rice plant seedlings. The insects were used in groups of 15 individuals each.

[7] = test system: tobacco cutworms (Prodenia litura Fabricius); experiment: Mortality test with tobacco cutworms by topical application method; type: in vivo; settings: 24 h
Description: Mortality test with tobacco cutworms (Prodenia litura Fabricius) by topical application method
Using a microsyringe, 0.5 μl of the above solution was dripped onto the thoracic adbominal region of each of 3-instar tobacco cutworm (Prodenia litura Fabricius) larvae. […] The test larvae were used in groups of 20 individuals each.

[8] = Fish toxicity test with guppies; type: in vivo, Lebistes reticulatus; settings: guppy, water, guppies, 20° C., read-out: TLm (48 hrs.)
Description: (§1) Fish toxicity test with guppies (Lebistes reticulatus)
(§2) To 5 liters of water were added 250 mg of Sorpol SM-200 (trademark, Toho Chemical Co., Ltd.) as a surfactant and 2.5 ml of an acetone solution containing one of the test compounds in a predetermined concentration. The mixture was stirred thoroughly to prepare a test water. Ten female guppies (Lebistes reticulatus) of from 3 to 4 months of age were released into the test water which was maintained at 20° C. and the TLm (median tolerance limit, ppm) was determined.

[9] = test system: guppies (Lebistes reticulatus); experiment: Fish toxicity test with guppies; type: in vivo; settings: Table 1; 48 hrs.
Description: as §1, §2

[10] = test system: houseflies (Musca domestica); experiment: Mortality test with houseflies by topical application method; settings: 24 h; for mortality at 0.001 mg: read-out: Pesticidal effect, housefly
[11] = Fish toxicity test with killifish; type: in vivo, Orizias latipes; settings: water, killifish, 25±1° C., read-out: TLm (48 hrs.)
Description: Fish toxicity test with killifish (Orizias latipes)
An acetone solution of one of the test compounds as mentioned in Table 8 was prepared by adding said test compound to 15 ml of acetone. To 10 liters of water was added a predetermined amount of the above acetone solution and the mixture was stirred thoroughly to prepare an aqueous solution containing the test compound in a predetermined concentration. This was used as a test water. After the each test water was moderately aerated, ten killifishes (Orizias latipes) with a body weight of about 0.25 g and a body length of about 2.5 cm were released into said each test water which was maintained at 25±1° C. After 48 hours, the test fish was examined for death. The TLm (median tolerance limit, ppm) was determined.

[12] = read-out: Pesticidal effect, tobacco cutworm

SMILES | mortality at 1 µg/larva [1] [%] | mortality at 10 µg/larva [1] [%] | LC50 at 48 h [2] [µg/mL] | LC50 at 6 h [3] [µg/mL] | Ranking (carp and water flea) | LC50 [4] [µg/mL] | selectivity ratio [5] | mortality at 0.01 µg/female [6] [%] | mortality at 0.1 µg/female [6] [%] | mortality at 1 µg/female [6] [%] | mortality at 10 ng [6] [%] | mortality at 0.001 mg [1] [%] | mortality at 0.0001 mg [7, 12] [%] | LC50 at 48 h [8] [µg/mL] | Toxicity to fish TLm, guppy [9] [ppm] | mortality at 0.5 µg/female [10] [%] | mortality at 1 µg/female [10] [%] | mortality at 0.001 mg [10] [%] | mortality at 0.0001 mg [7] [%] | LC50 at 48 h [11] [µg/mL]
CC1(C)[C@H](C(=O)OC(C#N)c2cccc(Oc3ccc(Cl)cc3)c2)[C@@H]1C=C(Cl)Cl (relative stereo) [Compound (G) cis-] | 40 | 100 | 0.013 (≈ 0.0288 µM) | 5 (≈ 11.1 µM) | C (TLm (48 hrs.) value <0.5 ppm for carp, wherein toxicity to fishes is so strongly observed by usual application that both the application method and application area are strictly restricted.) | 620 (≈ 1380 µM) | 0.01 |  |  |  |  |  |  |  |  |  |  |  |  | 
CC1(C)[C@H](C=C(Cl)Cl)[C@H]1C(=O)OC(C#N)c1cccc(Oc2ccc(Cl)cc2)c1 (relative stereo) [Compound (G) trans-] | 85 | 100 | 0.09 (≈ 0.2 µM) | 1.7 (≈ 3.77 µM) | C (TLm (48 hrs.) value <0.5 ppm for carp, wherein toxicity to fishes is so strongly observed by usual application that both the application method and application area are strictly restricted.) | 380 (≈ 843 µM) | 0.12 |  |  |  |  |  |  |  |  |  |  |  |  | 
CC1(C)C(C=C(Cl)Cl)C1C(=O)OCc1cccc(Oc2ccc(Cl)cc2)c1 (stereo not drawn) [Compound (1) cis-/trans- = 20:80] |  |  | 2.6 (≈ 6.11 µM) | > 40 | B (TLm (48 hrs.) value 10-0.5 ppm for carp; or TLm (48 hrs.) value >10 ppm for carp and TLm (3 hrs.) value <0.5 ppm for water flea, wherein appreciable toxicity to fishes is not observed by usual application but may be observed when applied to wide area at one time.) | 520 (≈ 1220 µM) | 2.5 |  |  |  |  |  |  |  |  |  |  |  |  | 
CC1(C)C(C=C(Br)Br)C1C(=O)OC(C#N)c1cccc(Oc2ccccc2)c1 (centres unmarked) [Compound (D), Decamethrin] | 100 | 100 | 0.0051 (≈ 0.0101 µM) |  | C (TLm (48 hrs.) value <0.5 ppm for carp, wherein toxicity to fishes is so strongly observed by usual application that both the application method and application area are strictly restricted.) |  |  | 100 | 100 | 100 | 100 | 100 | 100 | < 0.5 | < 0.5 | 100 | 100 | 100 |  | 
C#CC(OC(=O)C1C(C=C(Cl)Cl)C1(C)C)c1cccc(Oc2ccccc2)c1 (centres unmarked) [Compound (F)] |  |  |  |  |  |  |  | 100 | 100 | 100 | 100 |  |  | < 0.5 | < 0.5 | 100 | 100 | 100 |  | 
CC1(C)C(C=C(Cl)Cl)C1C(=O)OC(C#N)c1cccc(Oc2ccc(Cl)cc2)c1 (stereo not drawn) [Compound (G) cis-/trans- = 50:50] | 90 | 100 | 0.04 (≈ 0.0887 µM) |  | C (TLm (48 hrs.) value <0.5 ppm for carp, wherein toxicity to fishes is so strongly observed by usual application that both the application method and application area are strictly restricted.) | 450 (≈ 998 µM) | 0.04 | 100 | 100 | 100 | 100 | 90 | 65 | < 1 | < 1.0 | 100 | 100 | 100 | 65 | 0.15 (≈ 0.333 µM)
